This passage reports IC50 results from BindingDB's records for patent US20250197375 (Kineta, 2025).

This assay deals with T1, 1-phosphatidylinositol 3-phosphate 5-kinase [S696N,L932S,Q995L,T998S,S1033A,Q1183K] (Homo sapiens, UniProt Q9Y2I7, L932S/Q1183K/Q995L/S1033A/S696N/T998S).
T1 construct: gene PIKFYVE
Nature of the assay: PIKfyve Inhibitory Activity Assay. As to the method:
PIKfyve Biochemical Assay. The biochemical PIKFyve inhibition assays were run by Cama Biosciences according to proprietary methodology based on the Promega ADP-Glo™ Kinase assay. […] GST-PIKFYVE was purified by using glutathione sepharose chromatography and used in an ADP-Glo™ Kinase assay (Promega). Reactions were set up by adding the test compound solution, substrate solution, ATP solution and kinase solution, each at 4× final concentrations. Reactions were prepared with assay buffer (50 mM MOPS, 1 mM DTT, pH7.2), mixed, and incubated in black 384 well polystyrene plates for 1 hour at room temperature. ADP-Glo™ reagent was then added for 40 minutes, followed by kinase detection reagent for an additional 40 minutes. The kinase activity was evaluated by detecting relative light units on a luminescence plate reader. Samples were run in duplicate from 10 μM to 3 nM. […] IC50 values were calculated from concentration versus percent inhibition curves by fitting to a four-parameter logistic curve.

T1 sequence (Q9Y2I7 2-2098 S696N/L932S/Q995L/T998S/S1033A/Q1183K limits assumed): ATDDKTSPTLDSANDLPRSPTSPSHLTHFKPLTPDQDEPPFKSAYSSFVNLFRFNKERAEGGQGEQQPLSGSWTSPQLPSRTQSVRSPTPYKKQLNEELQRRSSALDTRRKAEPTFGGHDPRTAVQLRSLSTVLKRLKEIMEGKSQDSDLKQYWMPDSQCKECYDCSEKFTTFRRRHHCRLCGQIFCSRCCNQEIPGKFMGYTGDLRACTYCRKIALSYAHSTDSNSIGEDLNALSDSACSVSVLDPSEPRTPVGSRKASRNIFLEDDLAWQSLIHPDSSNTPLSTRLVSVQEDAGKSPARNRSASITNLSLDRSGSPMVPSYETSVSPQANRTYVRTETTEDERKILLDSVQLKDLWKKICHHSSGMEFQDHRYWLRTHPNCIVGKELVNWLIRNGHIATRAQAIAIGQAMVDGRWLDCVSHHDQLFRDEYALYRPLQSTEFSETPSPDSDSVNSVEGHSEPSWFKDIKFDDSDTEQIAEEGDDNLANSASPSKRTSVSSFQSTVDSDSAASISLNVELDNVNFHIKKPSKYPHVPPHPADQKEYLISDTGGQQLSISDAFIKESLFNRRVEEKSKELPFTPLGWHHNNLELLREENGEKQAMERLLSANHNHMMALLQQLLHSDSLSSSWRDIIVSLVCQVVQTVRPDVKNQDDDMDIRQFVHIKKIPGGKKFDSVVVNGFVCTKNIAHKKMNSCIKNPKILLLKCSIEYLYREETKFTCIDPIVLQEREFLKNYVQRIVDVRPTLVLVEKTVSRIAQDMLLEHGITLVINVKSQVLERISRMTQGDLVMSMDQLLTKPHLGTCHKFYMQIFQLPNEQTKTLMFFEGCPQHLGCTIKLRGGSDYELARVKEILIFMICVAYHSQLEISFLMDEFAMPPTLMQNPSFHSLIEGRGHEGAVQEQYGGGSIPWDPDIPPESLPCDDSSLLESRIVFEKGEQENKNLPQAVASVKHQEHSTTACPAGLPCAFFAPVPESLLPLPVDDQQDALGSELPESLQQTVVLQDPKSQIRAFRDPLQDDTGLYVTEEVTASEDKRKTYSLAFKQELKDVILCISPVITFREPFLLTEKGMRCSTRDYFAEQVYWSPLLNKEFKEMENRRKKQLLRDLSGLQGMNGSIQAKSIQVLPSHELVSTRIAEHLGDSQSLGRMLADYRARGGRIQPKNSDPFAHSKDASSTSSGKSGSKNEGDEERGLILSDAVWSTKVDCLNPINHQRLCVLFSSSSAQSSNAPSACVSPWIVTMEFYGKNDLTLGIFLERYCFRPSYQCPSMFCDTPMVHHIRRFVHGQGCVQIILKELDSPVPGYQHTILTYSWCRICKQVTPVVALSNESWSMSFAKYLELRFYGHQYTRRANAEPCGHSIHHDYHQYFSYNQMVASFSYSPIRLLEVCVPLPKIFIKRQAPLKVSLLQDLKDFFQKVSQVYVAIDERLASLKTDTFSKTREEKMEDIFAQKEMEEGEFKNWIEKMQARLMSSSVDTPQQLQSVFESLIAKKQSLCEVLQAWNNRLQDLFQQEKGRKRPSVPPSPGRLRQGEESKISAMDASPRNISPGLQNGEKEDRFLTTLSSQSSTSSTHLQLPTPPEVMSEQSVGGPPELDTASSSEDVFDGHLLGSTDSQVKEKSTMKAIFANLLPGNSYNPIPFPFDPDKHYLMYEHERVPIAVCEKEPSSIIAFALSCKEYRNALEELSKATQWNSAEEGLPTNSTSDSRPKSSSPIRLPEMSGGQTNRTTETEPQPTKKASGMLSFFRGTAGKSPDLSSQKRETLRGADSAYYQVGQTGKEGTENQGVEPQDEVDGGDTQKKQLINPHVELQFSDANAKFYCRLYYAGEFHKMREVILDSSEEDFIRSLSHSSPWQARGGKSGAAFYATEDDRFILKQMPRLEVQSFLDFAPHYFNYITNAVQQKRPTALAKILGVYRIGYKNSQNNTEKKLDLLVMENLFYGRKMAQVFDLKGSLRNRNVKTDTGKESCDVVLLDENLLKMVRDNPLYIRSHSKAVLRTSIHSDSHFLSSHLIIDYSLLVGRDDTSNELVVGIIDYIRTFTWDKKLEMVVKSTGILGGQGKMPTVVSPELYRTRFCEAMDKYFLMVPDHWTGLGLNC

In general, IC50 refers to the concentration that inhibits the measured activity by half. `CN(C)C(=O)c1c(Nc2ccncc2)nc(N2CCOCC2)nc1-c1cccc(-c2ccn(C)n2)c1` [US20250197375, Compound 66]: the 50% inhibitory concentration (IC50) is less than 10 nM.
